# Assays:
# [1] = target: T1, APH(3′)-IIIa (aminoglycoside phosphotransferase(3′)-IIIa) (Enterococcus faecalis, UniProt P0A3Y5); assay: quench flow and coupled-assay stopped flow, ADP production; format: biochemical; settings: 100 μM KanA, 200 μM ATP, 0.2 μM enzyme, 25 °C, pH 7.5; KanA also binds the E·ADP complex (uncompetitive-type abortive complex)
# T1 construct: gene aphA; recombinant, N-terminal 6His-tag kept (pET15b), E. coli BL21(DE3)
# [2] = target: T1, APH(3′)-IIIa (aminoglycoside phosphotransferase(3′)-IIIa); assay: rapid quench flow, total ADP by HPLC; format: biochemical; settings: 20 μM ADP added together with 20 μM ATP, 5 μM enzyme, 100 μM KanA, 25 °C, pH 7.5; competes with ATP for E·KanA; also the reaction product
# T1 sequence (P0A3Y5 whole entry): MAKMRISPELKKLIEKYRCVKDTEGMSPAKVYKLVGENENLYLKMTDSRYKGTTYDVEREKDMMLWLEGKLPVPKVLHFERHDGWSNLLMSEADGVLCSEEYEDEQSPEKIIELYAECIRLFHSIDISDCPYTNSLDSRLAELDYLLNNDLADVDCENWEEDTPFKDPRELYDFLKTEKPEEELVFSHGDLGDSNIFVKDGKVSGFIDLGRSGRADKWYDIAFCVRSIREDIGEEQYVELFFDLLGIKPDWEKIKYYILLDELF
SMILES,"quench flow and coupled-assay stopped flow, ADP production [1]",% reduction of kss and Aburst [2]
NC[C@H]1O[C@H](O[C@H]2[C@H](O)[C@@H](O[C@H]3O[C@H](CO)[C@@H](O)[C@H](N)[C@H]3O)[C@H](N)C[C@@H]2N)[C@H](O)[C@@H](O)[C@@H]1O [kanamycin A],The initial kss determined by the two methods were identical,
Nc1ncnc2c1ncn2[C@@H]1O[C@H](COP(=O)(O)OP(=O)(O)O)[C@@H](O)[C@H]1O [ADP],,~ 50%

# Reference: publication PMC3510435 (Febs Letters, 2012)
